Assay results taken from paper PMC6128908, “Potent PDZ-Domain PICK1 Inhibitors that Modulate Amyloid Beta-Mediated Synaptic Dysfunction” (Scientific Reports, 2018).
pIC50: −log10 of the molar value. Several values for one entry are separate records, joined by “and”; a condition that tells them apart may be missing. Equal values may be shown once. Read-outs that look alike come from different tables or passages of the source.

How the values were obtained:
[1] = target: PICK1 (Homo sapiens, UniProt Q9NRD5); experiment: PICK1 competition (displacement) assay with tracer BIO424; details: for fold more potent than the unsubstituted quinoline: relative to 1u;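 for all read-outs here: in vitro displacement assay with baculovirus-expressed, truncated dimeric PICK1 missing its final 59 residues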
Chain of PICK1 (Q9NRD5 1-356): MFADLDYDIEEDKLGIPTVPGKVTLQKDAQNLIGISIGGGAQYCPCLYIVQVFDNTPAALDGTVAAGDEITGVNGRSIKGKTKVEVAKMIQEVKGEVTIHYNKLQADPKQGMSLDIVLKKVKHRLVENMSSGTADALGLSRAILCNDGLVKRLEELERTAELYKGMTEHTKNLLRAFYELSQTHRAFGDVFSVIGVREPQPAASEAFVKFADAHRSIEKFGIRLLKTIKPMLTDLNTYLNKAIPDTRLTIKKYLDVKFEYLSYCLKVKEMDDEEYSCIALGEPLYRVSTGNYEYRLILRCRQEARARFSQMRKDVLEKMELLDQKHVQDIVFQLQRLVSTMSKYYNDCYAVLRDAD
Method: (§1) Fluorescence polarization (FP) and competition binding assays were used to determine PDZ binding affinities and selectivity of compounds as described in Alfonso et al.[20]. Briefly, a fixed concentration (5 nM) of Fluorescein isothiocyanate-labeled peptides comprising the C-terminal amino acids of GluA2 (875–883) and N-methyl-D-aspartate receptor subunit 2B (1474–1482) was used. Binding FP assays were carried out using increasing concentrations of recombinant full-length PICK1, postsynaptic density 95 (PSD95) PDZ 1–2, or Shank3 PDZ, and normalized by subtracting the tracer-only background.
Two recombinant PICK1 constructs were used in this study. […] A truncated, dimeric form of PICK1 lacking the last 59 residues was expressed in baculovirus and purified to homogeneity for use in the in vitro displacement assay. In general, both proteins were purified by Nickel chromatograpy followed by size exclusion chromatography.

[2] = test system: CA1 pyramidal neurons; experiment: Long term depression, whole cell recording in hippocampal slices; assay type: cell-based; details: 4 µM internally, low frequency stimulation, wild-type mice hippocampal slices
Method: Adult mice aged 8 to 9 weeks were decapitated using a guillotine and sliced at the first cervical vertebra. A cut was made through the skin in the middle of the scalp and the skull plate. The skull plate was separated and the brain was removed, and immediately submerged in iced-cold oxygenated Dissection Buffer (211 mM Sucrose, 2.6 mM KCl, 26 mM NaHCO3, 1.25 mM NaH2PO4, 5 mM MgCl2, 0.5 mM CaCl2, and 10 mM glucose) for 2 minutes. The brain was placed on an ice-cold cutting station and the brain cut along the longitudinal cerebral fissure to separate the two hemispheres. Hemispheres were placed in iced-cold oxygenated Dissection Buffer andand cerebellum was pulled away to reveal the hippocampus. The two hemispheres were arranged so that the hippocampi faced each other like two columns and the whole structure was glued onto a mounting plate, and slices were sectioned at 400 µm thickness and transferred to a holding chamber with oxygenated Recovery Buffer (124 mM NaCl, 3 mM KCl, 26 mM NaHCO3, 1.25 mM NaH2PO4, 2 mM MgSO4, 4 mM CaCl2, 10 mM glucose, and 1 mM kynurenic acid). Slices were allowed to recover for 1–1.5 h at room temperature before electrophysiology experiments. Whole-Cell current-clamp measurements on hippocampal CA1 pyramidal neurons were carried out at 32 to 33 °C. The cells were held at −60 mV potential and schaffer collateral fibers were stimulated. […]

[3] = Solubility comparison; assay type: physicochemical; details: compared with compound 1z
[4] = test system: surface GluA2 in cultured hippocampal neurons; experiment: Surface GluA2 immunostaining in cultured hippocampal neurons; assay type: cell-based, mouse
Method: Experiments were conducted in accordance with and received approval from the Institutional Animal Care and Use Committees at Biogen Inc. The experiments were carried out in accordance with guidelines laid down by the NIH regarding the care and use of animals for experimental procedures. Primary hippocampal cultures were prepared from embryonic day 18 rodent brains as described previously. Cells were plated on coverslips coated with poly-D-lysine (30 µg/mL) and laminin (2 µg/mL) at a density of 70, 000 cells per well in 12-well plates. […] Embryonic neuronal cultures were prepared from a minimum of three independent pregnant mice on separate days in all of the studies described, and at least 13 neurons were analyzed for each experimental group. […]
Confocal images of immunostained neurons were obtained using a confocal microscope objective (LSM 710, Zeiss) with sequential acquisition settings at a resolution of 1024 × 1024 pixels. […] All analysis and quantifications were carried out using MetaMorph image analysis software (Universal Imaging Corporation). Dendrites from experimental groups were randomly selected and carefully traced, and the average intensity of fluorescence staining was determined for the traced regions. Intensity measurements are expressed in arbitrary units of fluorescence per square area. Acquisition and quantification of images was blinded. […]

[5] = PK properties in rats; assay type: in vivo
Method: We next investigated the PK properties of compound 1z in rats to explore if it represented an appropriate in vivo tool compound. […] Several other compounds within this series were tested for brain penetration and were likewise unable to cross the blood brain barrier.

[6] = test system: AMPA receptor-dependent calcium influx in hippocampal neurons; experiment: Calcium mobilization assay (FLIPR), Aβ42-treated neurons; assay type: cell-based, mouse; details: neurons treated with Aβ42 for 24 hours, 40 μM s-AMPA stimulation
Method: Synthetic Aβ42 hexafluoroisopropanol peptide was prepared to the stock concentration of 200 μM by adding 10 μL dimethylsulfoxide to 100 μg of Aβ42 hexafluoroisopropanol pellet and incubating for 30 min at room temperature with occasional mixing. […] The solution was kept at room temperature for 2 h and then used for experiments.
Mouse hippocampal neurons from wild type E16–18 animals were isolated and cultured for 13 days in vitro in Neurobasal media with B27 Supplement, Glutamax, and penicillin/streptomycin (Invitrogen). Neuron cultures were then treated with Aβ in the absence or presence of PICK1 inhibitorsfor 24 hours. Calcium influx was measured using the FLIPR Calcium 4 Assay (Molecular Devices). The cells were loaded with dye for 1 hour at 37 °C and then stimulated with 40 μM s-AMPA (Sigma). Fluorescent recordings were taken using the FLIPR Tetra (Molecular Devices). Baseline measurements before AMPA stimulation were recorded and fluorescent intensity measurements were taken for roughly 3 minutes during and after stimulation. Calcium influx was calculated as the area under the curve and plotted using PRISM GraphPad software.

[7] = test system: GRIP; details: cited from earlier work
[8] = target: T1, PSD95 PDZ 1-2 (Homo sapiens, UniProt P78352); details: cited from earlier work
T1 construct: domains 1–2 in tandem; aminoacids 61–249; 8XHis-TEV; made in house; host or cells: E. coli
T1 sequence (P78352 61-249): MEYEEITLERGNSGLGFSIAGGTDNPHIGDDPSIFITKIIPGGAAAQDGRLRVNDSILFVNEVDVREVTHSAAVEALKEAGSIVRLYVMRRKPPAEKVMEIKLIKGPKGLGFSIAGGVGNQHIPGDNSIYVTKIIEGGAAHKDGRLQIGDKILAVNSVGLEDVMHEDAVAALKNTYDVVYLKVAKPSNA

[9] = target: T2, Shank3 PDZ (Homo sapiens, UniProt Q9BYB0); experiment: Fluorescence polarization selectivity assay, FITC-labeled GKAP peptide; assay type: binding; details: Supplemental Fig. 3D
T2 construct: Human Shank3 PDZ domain (residues 663–757); made in house; host or cells: E. coli
T2 sequence (Q9BYB0 646-740 limits assumed): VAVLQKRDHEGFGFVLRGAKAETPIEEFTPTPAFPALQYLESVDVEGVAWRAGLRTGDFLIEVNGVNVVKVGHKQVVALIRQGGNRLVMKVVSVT
Method: as §1

[10] = test system: GRIP; experiment: PDZ selectivity counter-screen against GRIP; assay type: binding; details: data not shown
Text: Having addressed the potency issue for this tool, we then looked into how selective this compound series was for PICK1 over other closely related PDZ domains. Since the ligand GluA2 recognizes both PICK1 and GRIP we were unsure of whether we could get a selective compound. GRIP (6 PDZ domain-containing protein) is the most closely related PDZ domain to PICK1. PSD95 ([…]) and Shank (a single PDZ domain scaffolding molecule), are also important to counter-screen as they are also located in neurons and could be considered a liability if they were inhibited (Supplemental Fig. 3). […] The selectivity observed for compound 1o was also observed for compound 1z[20].

[11] = rat, in vivo, 5 mg/kg, suspension (CMC/Tween)

SMILES	pIC50 ([1]; IC50, BIO424 as tracer)	also measured
O=C(O)[C@H](CC1CC1)NC(=O)C1(c2ccc(C(F)(F)F)cc2)CCN(c2cccc3ccccc23)CC1 [1t]	5.07	
CC(C)c1cc(N2CCC(C(=O)N[C@@H](CC3CC3)C(=O)O)(c3ccc(C(F)(F)F)cc3)CC2)c2ncccc2c1 [1x]	6.29	
CCc1cc(N2CCC(C(=O)N[C@@H](CC3CC3)C(=O)O)(c3ccc(C(F)(F)F)cc3)CC2)c2ncccc2c1 [1w]	6.57	
CC(C)[C@H](NC(=O)C1(c2ccccc2)CCN(C(=O)[C@@H]2CCCN2C(=O)OC(C)(C)C)CC1)C(=O)O [1a]	4.72	
CC(C)[C@H](NC(=O)C1(c2ccc(C(F)(F)F)cc2)CCN(C(=O)[C@@H]2CCCN2C(=O)OC(C)(C)C)CC1)C(=O)O [1f]	5.81 and 5.80	
O=C(O)[C@H](CC1CC1)NC(=O)C1(c2ccc(Br)cc2)CCN(Cc2cccc(C(F)(F)F)c2)CC1 [1p]	5.59	
CC(C)[C@H](NC(=O)C1(c2ccc(Br)cc2)CCN(C(=O)[C@@H]2CCCN2C(=O)OC(C)(C)C)CC1)C(=O)O [1e]	5.37	
CC(c1ccccc1C(F)(F)F)N1CCC(C(=O)N[C@@H](CC2CC2)C(=O)O)(c2ccc(Br)cc2)CC1 (some centres unmarked) [1r]	5.91	induction of long term depression (LTD) [2]: LTD was not induced; solubility [3]: better than compound 1z
O=C(O)[C@H](CC1CC1)NC(=O)C1(c2ccc(C(F)(F)F)cc2)CCN(c2cccc3cccnc23)CC1 [1u]	5.34	
O=C(O)[C@H](CC1CC1)NC(=O)C1(c2ccc(C(F)(F)F)cc2)CCN(c2cc(Cl)cc3cccnc23)CC1 [1z]		surface GluA2 levels relative to untreated neurons ([4]; 3 μM, 24 hours, cultured hippocampal neurons): increased; total amount of GluA2 in the cytoplasm and on the cell surface ([4]; inhibitor treatment, data not shown): unchanged; pIC50 ([1]; IC50 (potency)): 7.16; fold more potent than the unsubstituted quinoline [1]: 67 fold; exposure in the brain (brain penetration) [5]: no exposure in the brain; AUC [5, 11]: 2920 ng·h/mL; Cmax [5, 11]: 1360 ng/mL; effect on Aβ42-induced increase in intracellular calcium concentration [6]: attenuated; selectivity for PICK1 over GRIP [7]: selectivity; selectivity for PICK1 over PSD95 [8]: selectivity
CC(C)(C)OC(=O)N1CCC[C@H]1C(=O)N1CCC(C(=O)N[C@@H](CC2CC2)C(=O)O)(c2ccc(C(F)(F)F)cc2)CC1 [1n]		pIC50 ([1]; IC50 (potency)): 6.89
CC(C)(C)OC(=O)N1CCC[C@H]1C(=O)N1CCC(C(=O)N[C@H](C(=O)O)C2CCCC2)(c2ccc(Br)cc2)CC1 [1l]	6.09	
CC(C)(C)OC(=O)N1CCC[C@H]1C(=O)N1CCC(C(=O)N[C@@H](CC2CC2)C(=O)O)(c2ccc(Br)cc2)CC1 [1m]	6.14	
CC(C)[C@H](NC(=O)C1(N2CCOCC2)CCN(C(=O)[C@@H]2CCCN2C(=O)OC(C)(C)C)CC1)C(=O)O [1c]	~3.76	
C[C@H](NC(=O)C1(c2ccc(Br)cc2)CCN(C(=O)[C@@H]2CCCN2C(=O)OC(C)(C)C)CC1)C(=O)O [1h]	4.92	
O=C(O)[C@H](CC1CC1)NC(=O)C1(c2ccc(Br)cc2)CCN(Cc2ccc(C(F)(F)F)cc2)CC1 [1q]	5.23	
CC(C)[C@H](NC(=O)C1(C2CCCCC2)CCN(C(=O)[C@@H]2CCCN2C(=O)OC(C)(C)C)CC1)C(=O)O [1b]	4.76	
CC(C)(C)OC(=O)N1CCC[C@H]1C(=O)N1CCC(C(=O)NCC(=O)O)(c2ccc(Br)cc2)CC1 [1g]	< 3.76	
COc1cc(N2CCC(C(=O)N[C@@H](CC3CC3)C(=O)O)(c3ccc(C(F)(F)F)cc3)CC2)c2ncccc2c1 [1ac]	6.25	
Cc1cc(N2CCC(C(=O)N[C@@H](CC3CC3)C(=O)O)(c3ccc(C(F)(F)F)cc3)CC2)c2ncccc2c1 [1v]	6.46	fold more potent than the unsubstituted quinoline [1]: 10 fold
O=C(O)[C@H](CC1CC1)NC(=O)C1(c2ccc(C(F)(F)F)cc2)CCN(c2cc(OC(F)(F)F)cc3cccnc23)CC1 [1ad]	5.64	
O=C(O)[C@H](CC1CC1)NC(=O)C1(c2ccc(C(F)(F)F)cc2)CCN(c2cc(C(F)(F)F)cc3cccnc23)CC1 [1ab]	6.98	
O=C(O)[C@H](CC1CC1)NC(=O)C1(c2ccc(Br)cc2)CCN(Cc2ccccc2C(F)(F)F)CC1 [1o]	6.24	selectivity for PICK1 over Shank PDZ domain [9]: selectivity; selectivity for PICK1 over GRIP [10]: selectivity
CC(C)(C)OC(=O)N1CCC[C@H]1C(=O)N1CCC(C(=O)NC(C)(C)C(=O)O)(c2ccc(Br)cc2)CC1 [1i]	< 3.76	
O=C(O)[C@H](CC1CC1)NC(=O)C1(c2ccc(C(F)(F)F)cc2)CCN(c2cc(F)cc3cccnc23)CC1 [1y]	6.20	
CC(C)(C)OC(=O)N1CCC[C@H]1C(=O)N1CCC(C(=O)N[C@@H](Cc2c[nH]cn2)C(=O)O)(c2ccc(Br)cc2)CC1 [1k]	< 3.76	
CC(C)(C)OC(=O)N1CCC[C@H]1C(=O)N1CCC(C(=O)N[C@@H](Cc2c[nH]c3ccccc23)C(=O)O)(c2ccc(Br)cc2)CC1 [1j]	< 3.76	
CC(C)[C@H](NC(=O)C1(Cc2ccccc2)CCN(C(=O)[C@@H]2CCCN2C(=O)OC(C)(C)C)CC1)C(=O)O [1d]	4.69	
O=C(O)[C@H](CC1CC1)NC(=O)C1(c2ccc(C(F)(F)F)cc2)CCN(c2cc(Br)cc3cccnc23)CC1 [1aa]	7.12	
O=C(O)[C@H](CC1CC1)NC(=O)C1(c2ccc(C(F)(F)F)cc2)CCN(c2ccccc2)CC1 [1s]	5.69	
